Results: ChEMBL document CHEMBL5360661, “Structure-Activity Relationship Study of 1H-Pyrrole-3-carbonitrile Derivatives as STING Receptor Agonists” (ACS Med Chem Lett, 2023)
The source made the active and inactive calls. The rule behind the calls is not given here.

Experiments:
Homo sapiens [1] = organism: Homo sapiens; assay: Binding affinity to recombinant human STING R232H variant C-terminal domain (139 to 378 residues) expressed in Escherichia coli BL21 (DE3) cells assessed as thermal stabilization by measuring change in melting temperature at 50 uM incubated at 25 to 95 degreeC for 45 mins by SYPRO orange dye based fluorescence analysis
[2] = target: T1, Stimulator of interferon genes protein (Homo sapiens, UniProt Q86WV6); assay: Agonist activity at STING in PMA-differentiated wildtype human THP1-Blue ISG cells harboring IRF-inducible SEAP reporter construct incubated for 24 hrs by QUANTI-Blue assay; type: cell-based
Target sequence in this assay (Q86WV6 whole entry, the tested form may be a part): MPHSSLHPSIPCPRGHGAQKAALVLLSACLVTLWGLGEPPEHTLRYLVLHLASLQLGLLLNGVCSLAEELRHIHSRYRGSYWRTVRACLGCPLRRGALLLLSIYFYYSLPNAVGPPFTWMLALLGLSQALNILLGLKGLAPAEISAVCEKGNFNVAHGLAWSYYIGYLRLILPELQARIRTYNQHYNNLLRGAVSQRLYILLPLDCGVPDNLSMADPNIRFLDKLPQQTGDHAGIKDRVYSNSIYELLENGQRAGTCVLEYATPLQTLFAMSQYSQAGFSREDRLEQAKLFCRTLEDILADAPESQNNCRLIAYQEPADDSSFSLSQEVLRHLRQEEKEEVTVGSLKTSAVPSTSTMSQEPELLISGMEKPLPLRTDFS

[3] = system: Stimulator of interferon genes protein (Homo sapiens), Q86WV6 [UNDEFINED MUTATION]; assay: Binding affinity to recombinant wildtype human STING R232 variant C-terminal domain (139 to 378 residues) expressed in Escherichia coli BL21 (DE3) cells assessed as thermal stabilization by measuring change in melting temperature at 50 uM incubated at 25 to 95 degreeC for 45 mins by SYPRO orange dye based fluorescence analysis
Homo sapiens [4] = organism: Homo sapiens; assay: Binding affinity to recombinant human STING G230A and R293Q variant C-terminal domain (139 to 378 residues) expressed in Escherichia coli BL21 (DE3) cells assessed as thermal stabilization by measuring change in melting temperature at 50 uM incubated at 25 to 95 degreeC for 45 mins by SYPRO orange dye based fluorescence analysis
Homo sapiens [5] = organism: Homo sapiens; assay: Binding affinity to recombinant human STING R293Q variant C-terminal domain (139 to 378 residues) expressed in Escherichia coli BL21 (DE3) cells assessed as thermal stabilization by measuring change in melting temperature at 50 uM incubated at 25 to 95 degreeC for 45 mins by SYPRO orange dye based fluorescence analysis
[6] = target: T2, Stimulator of interferon genes protein (Mus musculus) (UniProt Q3TBT3); assay: Binding affinity to recombinant 6-His tagged mouse STING C-terminal domain (144 to 378 residues) expressed in Escherichia coli BL21 (DE3) cells assessed as thermal stabilization by measuring change in melting temperature at 50 uM incubated at 25 to 95 degreeC for 45 mins by SYPRO orange dye based fluorescence analysis
T2 sequence (whole entry): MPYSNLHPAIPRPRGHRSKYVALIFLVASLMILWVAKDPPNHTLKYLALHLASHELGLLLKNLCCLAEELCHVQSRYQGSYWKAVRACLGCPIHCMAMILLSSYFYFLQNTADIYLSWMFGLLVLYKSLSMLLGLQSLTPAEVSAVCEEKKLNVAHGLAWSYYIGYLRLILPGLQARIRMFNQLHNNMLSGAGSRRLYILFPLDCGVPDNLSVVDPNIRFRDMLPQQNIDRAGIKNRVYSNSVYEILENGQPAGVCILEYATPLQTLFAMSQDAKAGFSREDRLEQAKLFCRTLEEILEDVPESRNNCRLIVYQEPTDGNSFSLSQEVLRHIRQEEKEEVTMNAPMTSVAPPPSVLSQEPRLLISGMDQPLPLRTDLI

[7] = target: T1, Stimulator of interferon genes protein; assay: Competitive inhibition of 5-FAM labelled diABZI binding to recombinant wildtype human STING R232 variant C-terminal domain (139 to 378 residues) expressed in Escherichia coli BL21 (DE3) cells incubated for 10 mins by fluorescence polarization assay
Target sequence in this assay (Q86WV6 whole entry, looked up, stated change not applied, the tested form may be a part): as the sequence (Q86WV6 whole entry, the tested form may be a part) above

[8] = Competitive inhibition of 5-FAM labelled diABZI binding to recombinant human STING R232H variant C-terminal domain (139 to 378 residues) expressed in Escherichia coli BL21 (DE3) cells incubated for 10 mins by fluorescence polarization assay
[9] = Competitive inhibition of 5-FAM labelled diABZI binding to recombinant human STING G230A and R293Q variant C-terminal domain (139 to 378 residues) expressed in Escherichia coli BL21 (DE3) cells incubated for 10 mins by fluorescence polarization assay
[10] = Competitive inhibition of 5-FAM labelled diABZI binding to recombinant human STING R293Q variant C-terminal domain (139 to 378 residues) expressed in Escherichia coli BL21 (DE3) cells incubated for 10 mins by fluorescence polarization assay
[11] = target: T3, Stimulator of interferon genes protein (Mus musculus, UniProt Q3TBT3); assay: Competitive inhibition of 5-FAM labelled diABZI binding to recombinant 6-his tagged mouse STING C-terminal domain (144 to 378 residues) expressed in Escherichia coli BL21 (DE3) cells incubated for 10 mins by fluorescence polarization assay
T3 sequence (Q3TBT3 whole entry): T2 sequence (whole entry)

[12] = target: T1, Stimulator of interferon genes protein; assay: Activation of cGAS-STING pathway in wildtype human THP1-Blue ISG cells assessed as induction of STING phosphorylation at Ser366 residue at 15 uM incubated upto 6 hrs by Western blot analysis; type: cell-based; details: filed as activator
Target sequence in this assay (Q86WV6 whole entry, the tested form may be a part): as the sequence (Q86WV6 whole entry, the tested form may be a part) above

[13] = target: T1, Stimulator of interferon genes protein; assay: Activation of cGAS-STING pathway in wildtype human THP1-Blue ISG cells assessed as induction of TBK1 phosphorylation at Ser172 residue at 15 uM incubated upto 6 hrs by Western blot analysis; type: cell-based; details: filed as activator
Target sequence in this assay (Q86WV6 whole entry, the tested form may be a part): as the sequence (Q86WV6 whole entry, the tested form may be a part) above

[14] = target: T1, Stimulator of interferon genes protein; assay: Activation of cGAS-STING pathway in wildtype human THP1-Blue ISG cells assessed as induction of IRF3 phosphorylation at Ser396 residue at 15 uM incubated upto 6 hrs by Western blot analysis; type: cell-based; details: filed as activator
Target sequence in this assay (Q86WV6 whole entry, the tested form may be a part): as the sequence (Q86WV6 whole entry, the tested form may be a part) above

[15] = target: T1, Stimulator of interferon genes protein; assay: Activation of cGAS-STING pathway in wildtype human THP1-Blue ISG cells assessed as induction of p65 phosphorylation at Ser536 residue at 15 uM incubated upto 6 hrs by Western blot analysis; type: cell-based; details: filed as activator
Target sequence in this assay (Q86WV6 whole entry, the tested form may be a part): as the sequence (Q86WV6 whole entry, the tested form may be a part) above

[16] = target: T1, Stimulator of interferon genes protein; assay: Activation of cGAS-STING pathway in wildtype human THP1-Blue ISG cells assessed as induction of STAT3 phosphorylation at Tyr705 residue at 15 uM incubated upto 6 hrs by Western blot analysis; type: cell-based; details: filed as activator
Target sequence in this assay (Q86WV6 whole entry, the tested form may be a part): as the sequence (Q86WV6 whole entry, the tested form may be a part) above

[17] = target: T1, Stimulator of interferon genes protein; assay: Activation of cGAS-STING pathway in human THP1-Dual KO-cGAS cells assessed as induction of STING phosphorylation at Ser366 residue at 15 uM incubated for 1 hrs by Western blot analysis; type: cell-based; details: filed as activator
[18] = target: T1, Stimulator of interferon genes protein; assay: Activation of cGAS-STING pathway in human THP1-Dual KO-cGAS cells assessed as induction of TBK1 phosphorylation at Ser172 residue at 15 uM incubated for 1 hrs by Western blot analysis; type: cell-based; details: filed as activator
[19] = target: T1, Stimulator of interferon genes protein; assay: Activation of cGAS-STING pathway in human THP1-Dual KO-cGAS cells assessed as induction of IRF3 phosphorylation at Ser396 residue at 15 uM incubated for 1 hrs by Western blot analysis; type: cell-based; details: filed as activator
[20] = target: T1, Stimulator of interferon genes protein; assay: Activation of cGAS-STING pathway in human THP1-Dual KO-cGAS cells assessed as induction of p65 phosphorylation at Ser536 residue at 15 uM incubated for 1 hrs by Western blot analysis; type: cell-based; details: filed as activator
[21] = target: T1, Stimulator of interferon genes protein; assay: Activation of cGAS-STING pathway in human THP1-Dual KO-cGAS cells assessed as induction of STAT3 phosphorylation at Tyr705 residue at 15 uM incubated for 1 hrs by Western blot analysis; type: cell-based; details: filed as activator
[22] = target: T1, Stimulator of interferon genes protein; assay: Activation of cGAS-STING pathway in human THP1-Dual KO-STING cells assessed as induction of STING phosphorylation at Ser366 residue at 15 uM incubated for 1 hrs by Western blot analysis; type: cell-based
[23] = target: T1, Stimulator of interferon genes protein; assay: Activation of cGAS-STING pathway in human THP1-Dual KO-STING cells assessed as induction of TBK1 phosphorylation at Ser172 residue at 15 uM incubated for 1 hrs by Western blot analysis; type: cell-based
[24] = target: T1, Stimulator of interferon genes protein; assay: Activation of cGAS-STING pathway in human THP1-Dual KO-STING cells assessed as induction of IRF3 phosphorylation at Ser396 residue at 15 uM incubated for 1 hrs by Western blot analysis; type: cell-based
[25] = target: T1, Stimulator of interferon genes protein; assay: Activation of cGAS-STING pathway in human THP1-Dual KO-STING cells assessed as induction of p65 phosphorylation at Ser536 residue at 15 uM incubated for 1 hrs by Western blot analysis; type: cell-based
[26] = target: T1, Stimulator of interferon genes protein; assay: Activation of cGAS-STING pathway in human THP1-Dual KO-STING cells assessed as induction of STAT3 phosphorylation at Tyr705 residue at 15 uM incubated for 1 hrs by Western blot analysis; type: cell-based
[27] = target: T1, Stimulator of interferon genes protein; assay: Activation of cGAS-STING pathway in human THP-1 cells assessed as stimulation of IFNB1 gene expression at 15 uM by RT-qPCR analysis; type: cell-based; details: filed as activator, time <= 8.0 hrs
[28] = target: T1, Stimulator of interferon genes protein; assay: Activation of cGAS-STING pathway in human THP-1 cells assessed as stimulation of CXCL10 gene expression at 15 uM by RT-qPCR analysis; type: cell-based; details: filed as activator, time <= 8.0 hrs
[29] = target: T1, Stimulator of interferon genes protein; assay: Activation of cGAS-STING pathway in human THP-1 cells assessed as stimulation of IL6 gene expression at 15 uM by RT-qPCR analysis; type: cell-based; details: filed as activator, time <= 8.0 hrs

Stimulator of interferon genes protein (Homo sapiens), Q86WV6 [UNDEFINED MUTATION], sequence (Q86WV6 whole entry, looked up, stated change not applied, the tested form may be a part): as the sequence (Q86WV6 whole entry, the tested form may be a part) above

C#Cc1cc(NC(=O)c2ccc(-n3ccc(C#N)c3)nn2)c(C(=O)O)cc1F
ΔTm (Homo sapiens [1]): 8 °C
EC50 [2]: 1.19 µM
ΔTm [3]: 6 °C
ΔTm (Homo sapiens [4]): 13 °C
ΔTm (Homo sapiens [5]): 7.5 °C
ΔTm [6]: 7.5 °C
IC50 [7]: 3.31 µM
IC50 [8]: 3.55 µM
IC50 [9]: 0.91 µM
IC50 [10]: 3.74 µM
IC50 [11]: 4.72 µM
Activity [12]: Active
Activity [13]: Active
Activity [14]: Active
Activity [15]: Active
Activity [16]: Active
Activity [17]: Active
Activity [18]: Active
Activity [19]: Active
Activity [20]: Active
Activity [21]: Active
Activity [22]: inactive
Activity [23]: inactive
Activity [24]: inactive
Activity [25]: inactive
Activity [26]: inactive
Activity [27]: Active
Activity [28]: Active
Activity [29]: Active
